The test system of series [1] is Rattus norvegicus. The experiment in a line: Hypobetalipoproteinemic activity in diet-induced hypercholesteremic rat model assessed as decrease in heparin precipitating lipoproteins at 50 mg/kg, po relative to control. The class given is functional.
For series [2], the system named is Rattus norvegicus. The experiment in a line: Toxicity in diet-induced hypercholesteremic rat model assessed as increase in body weight at 50 mg/kg, po relative to control. The class given is organism-based. Further details: dose 50 mg/kg, route oral. As to conditions: in vivo.
Series [3] deals with Rattus norvegicus. Nature of the series: Toxicity in diet-induced hypercholesteremic rat model assessed as increase in food intake at 50 mg/kg, po relative to control. It counts as organism-based. Also on record: dose 50 mg/kg, route oral. As to conditions: in vivo.
The species named for series [4] is Rattus norvegicus. Nature of the series: Selectivity ratio of T/C for heparin precipitating lipoproteins to T/C for total serum cholesterol in diet-induced hypercholesteremic rat model. The class given is functional.
The subject of series [5] is Rattus norvegicus. The experiment in a line: Hypobetalipoproteinemic activity in diet-induced hypercholesteremic rat model assessed as decrease in total serum cholesterol at 50 mg/kg, po relative to control. It counts as functional.

Some results are limits rather than exact numbers.

Consider `Nc1ccc(OC23CCC(CC2)CC3)cc1`, for which the T/C in the series with Rattus norvegicus [1] is 0.72; in the series on Rattus norvegicus [5] it was 0.8. Further, the Activity with Rattus norvegicus [2] is more than 63%; in the series on Rattus norvegicus [3], more than 73%. Also, the Selectivity ratio in the series filed under Rattus norvegicus [4] came to 0.9.

As to `Nc1ccc(OC23CC4CC(CC(C4)C2)C3)cc1`, the T/C in the series with Rattus norvegicus [1] was found to be 0.35; in the series with Rattus norvegicus [5], 0.54. Besides, the Activity with Rattus norvegicus [2] is more than 63%; with Rattus norvegicus [3], more than 73%. Moreover, in the series listed under Rattus norvegicus [4], the Selectivity ratio worked out at 0.65.

`O=CNc1ccc(OC23CC4CC(CC(C4)C2)C3)cc1`: the T/C was found to be 0.78 in the series on Rattus norvegicus [1] and 0.71 in the series on Rattus norvegicus [5]. Also, the figures for the Activity in the series on Rattus norvegicus [2] and in the series with Rattus norvegicus [3] were more than 63% and more than 73%, respectively. Besides, the Selectivity ratio in the series filed under Rattus norvegicus [4] was 1.09.

For the compound `CCOC(=O)Nc1ccc(OC23CC4CC(CC(C4)C2)C3)cc1`, the T/C in the series with Rattus norvegicus [1] was found to be 0.42; in the series with Rattus norvegicus [5], 0.57. In addition, the Activity in the series with Rattus norvegicus [2] was more than 63%; with Rattus norvegicus [3], more than 73%. Further, in the series listed under Rattus norvegicus [4], the Selectivity ratio came out at 0.74.

Take `CC(=O)Nc1ccc(OC23CC4CC(CC(C4)C2)C3)cc1`: the T/C came to 0.5 in the series with Rattus norvegicus [1] and 0.66 with Rattus norvegicus [5]. Further, the Activity in the series on Rattus norvegicus [2] is recorded as more than 63%; in the series with Rattus norvegicus [3], more than 73%. Besides, in the series filed under Rattus norvegicus [4], the Selectivity ratio is given as 0.76.

Take `CS(=O)(=O)Nc1ccc(OC23CC4CC(CC(C4)C2)C3)cc1`: the T/C in the series on Rattus norvegicus [1] was found to be 1.3; in the series with Rattus norvegicus [5], 1.51. Further, the Activity with Rattus norvegicus [2] was more than 63%; with Rattus norvegicus [3], more than 73%. Moreover, the Selectivity ratio in the series filed under Rattus norvegicus [4] is reported as 0.85.

For the compound `CNC(=O)Nc1ccc(OC23CC4CC(CC(C4)C2)C3)cc1`, the T/C with Rattus norvegicus [1] worked out at 0.96; in the series on Rattus norvegicus [5], 1.06. The values for the Activity with Rattus norvegicus [2] and with Rattus norvegicus [3] were more than 63% and more than 73%, respectively. Also, in the series listed under Rattus norvegicus [4], the Selectivity ratio stood at 0.91.

Turning to `O=C(Nc1ccccc1)Nc1ccc(OC23CC4CC(CC(C4)C2)C3)cc1`, the T/C in the series with Rattus norvegicus [1] is on record as 1.23; with Rattus norvegicus [5], 1.18. In addition, the Activity in the series with Rattus norvegicus [2] is on record as more than 63%; with Rattus norvegicus [3] it was more than 73%. In the series listed under Rattus norvegicus [4], the Selectivity ratio turned out to be 1.05.

Consider `S=C(Nc1ccc(OC23CC4CC(CC(C4)C2)C3)cc1)NC12CC3CC(CC(C3)C1)C2`, for which the T/C stood at 0.91 with Rattus norvegicus [1] and 0.88 with Rattus norvegicus [5]. In addition, the results for the Activity in the series with Rattus norvegicus [2] and with Rattus norvegicus [3] were more than 63% and more than 73%, respectively. Moreover, the Selectivity ratio in the series listed under Rattus norvegicus [4] turned out to be 1.03.

Turning to `CNc1ccc(OC23CC4CC(CC(C4)C2)C3)cc1.Cl`, the T/C in the series with Rattus norvegicus [1] came to 0.32; in the series with Rattus norvegicus [5] it was 0.52. The values for the Activity in the series with Rattus norvegicus [2] and in the series on Rattus norvegicus [3] were more than 63% and more than 73%, respectively. Also, the Selectivity ratio in the series filed under Rattus norvegicus [4] turned out to be 0.63.

As to `CCNc1ccc(OC23CC4CC(CC(C4)C2)C3)cc1.Cl`, the T/C is 0.36 with Rattus norvegicus [1] and 0.49 with Rattus norvegicus [5]. Further, the figures for the Activity with Rattus norvegicus [2] and in the series on Rattus norvegicus [3] were more than 63% and more than 73%, respectively. Further, the Selectivity ratio in the series filed under Rattus norvegicus [4] amounted to 0.72.

In the case of `c1cc(N2CCCC2)ccc1OC12CC3CC(CC(C3)C1)C2`, the T/C in the series on Rattus norvegicus [1] worked out at 0.52; in the series with Rattus norvegicus [5], 0.65. Besides, the values for the Activity with Rattus norvegicus [2] and with Rattus norvegicus [3] were more than 63% and more than 73%, respectively. For the same compound, the Selectivity ratio in the series filed under Rattus norvegicus [4] amounted to 0.8.

For `c1cc(N2CCCCC2)ccc1OC12CC3CC(CC(C3)C1)C2`, the results for the T/C with Rattus norvegicus [1] and in the series with Rattus norvegicus [5] were 0.25 and 0.44, respectively. Further, the Activity in the series on Rattus norvegicus [2] was more than 63%; in the series with Rattus norvegicus [3], more than 73%. In the series filed under Rattus norvegicus [4], the Selectivity ratio was found to be 0.58.

Turning to `c1cc(N2CCOCC2)ccc1OC12CC3CC(CC(C3)C1)C2`, the T/C in the series on Rattus norvegicus [1] is recorded as 0.87; in the series on Rattus norvegicus [5] it was 0.92. The Activity in the series on Rattus norvegicus [2] is recorded as more than 63%; with Rattus norvegicus [3], more than 73%. Moreover, the Selectivity ratio in the series filed under Rattus norvegicus [4] is 0.94.

As for `C#CCN(C)c1ccc(OC23CC4CC(CC(C4)C2)C3)cc1.Cl`, the T/C was determined as 0.6 in the series with Rattus norvegicus [1] and 0.57 in the series on Rattus norvegicus [5]. Moreover, the Activity in the series with Rattus norvegicus [2] is more than 63%; with Rattus norvegicus [3], more than 73%. Besides, the Selectivity ratio in the series filed under Rattus norvegicus [4] is reported as 1.05.

`CN(CCO)c1ccc(OC23CC4CC(CC(C4)C2)C3)cc1`: the figures for the T/C in the series on Rattus norvegicus [1] and with Rattus norvegicus [5] were 0.55 and 0.63, respectively. In addition, the Activity is recorded as more than 63% with Rattus norvegicus [2] and more than 73% in the series on Rattus norvegicus [3]. In the series filed under Rattus norvegicus [4], the Selectivity ratio stood at 0.88.

On to `CN(CCN1CCCC1)c1ccc(OC23CC4CC(CC(C4)C2)C3)cc1.Cl`, for which the T/C in the series on Rattus norvegicus [1] is listed as 1.22; in the series on Rattus norvegicus [5] it was 1.26. Besides, the figures for the Activity with Rattus norvegicus [2] and in the series on Rattus norvegicus [3] were more than 63% and more than 73%, respectively. For the same compound, the Selectivity ratio in the series listed under Rattus norvegicus [4] amounted to 0.97.

With `CN(C)CCCN(C)c1ccc(OC23CC4CC(CC(C4)C2)C3)cc1.Cl`, the T/C in the series with Rattus norvegicus [1] came to 0.99; in the series with Rattus norvegicus [5], 0.98. Besides, the Activity in the series on Rattus norvegicus [2] is on record as more than 63%; with Rattus norvegicus [3], more than 73%. The Selectivity ratio in the series listed under Rattus norvegicus [4] is 1.01.

For the compound `CN(C=O)c1ccc(OC23CC4CC(CC(C4)C2)C3)cc1`, the T/C with Rattus norvegicus [1] was 0.36; with Rattus norvegicus [5], 0.51. Also, the Activity is on record as more than 63% with Rattus norvegicus [2] and more than 73% in the series on Rattus norvegicus [3]. The Selectivity ratio in the series listed under Rattus norvegicus [4] is 0.72.

On to `CN(C)c1ccc(OC23CC4CC(CC(C4)C2)C3)cc1.Cl`, for which the T/C amounted to 0.34 in the series on Rattus norvegicus [1] and 0.46 in the series on Rattus norvegicus [5]. Further, the values for the Activity with Rattus norvegicus [2] and in the series on Rattus norvegicus [3] were more than 63% and more than 73%, respectively. Besides, in the series listed under Rattus norvegicus [4], the Selectivity ratio stood at 0.73.

For `CN(CCc1ccccc1)c1ccc(OC23CC4CC(CC(C4)C2)C3)cc1.Cl`, the T/C in the series with Rattus norvegicus [1] turned out to be 1.07; in the series on Rattus norvegicus [5], 1.09. For the same compound, the Activity in the series on Rattus norvegicus [2] is given as more than 63%; in the series with Rattus norvegicus [3] it was more than 73%. Also, the Selectivity ratio in the series filed under Rattus norvegicus [4] turned out to be 0.98.

As for `CN(CCOc1ccccc1)c1ccc(OC23CC4CC(CC(C4)C2)C3)cc1`, the T/C with Rattus norvegicus [1] was determined as 1.06; in the series on Rattus norvegicus [5], 1.03. Further, the Activity with Rattus norvegicus [2] is more than 63%; in the series with Rattus norvegicus [3], more than 73%. Further, the Selectivity ratio in the series listed under Rattus norvegicus [4] came out at 1.03.

On to `CCCCCCCCN(C)c1ccc(OC23CC4CC(CC(C4)C2)C3)cc1.Cl`, for which the values for the T/C in the series with Rattus norvegicus [1] and with Rattus norvegicus [5] were 1.04 and 1.15, respectively. Moreover, the values for the Activity in the series on Rattus norvegicus [2] and with Rattus norvegicus [3] were more than 63% and more than 73%, respectively. Also, the Selectivity ratio in the series filed under Rattus norvegicus [4] stood at 0.91.

With `Cc1cc(N)ccc1OC12CC3CC(CC(C3)C1)C2.Cl`, the values for the T/C in the series with Rattus norvegicus [1] and in the series on Rattus norvegicus [5] were 0.31 and 0.52, respectively. Also, the values for the Activity with Rattus norvegicus [2] and in the series on Rattus norvegicus [3] were less than 63% and more than 73%, respectively. Besides, the Selectivity ratio in the series listed under Rattus norvegicus [4] worked out at 0.6.

In the case of `Nc1ccc(OC23CC4CC(CC(C4)C2)C3)c(F)c1`, the T/C in the series with Rattus norvegicus [1] was 0.52; with Rattus norvegicus [5], 0.57. For the same compound, the results for the Activity with Rattus norvegicus [2] and with Rattus norvegicus [3] were more than 63% and more than 73%, respectively. In the series listed under Rattus norvegicus [4], the Selectivity ratio was found to be 0.92.

Turning to `CC(=O)Nc1ccc(OC23CC4CC(CC(C4)C2)C3)c(F)c1`, the T/C in the series with Rattus norvegicus [1] was found to be 1.07; in the series with Rattus norvegicus [5] it was 1.15. Besides, the Activity with Rattus norvegicus [2] is on record as more than 63%; in the series on Rattus norvegicus [3], more than 73%. Besides, the Selectivity ratio in the series listed under Rattus norvegicus [4] amounted to 0.93.
